In publication PMC4931907 (eLife, 2016):
Like-named read-outs stand apart in the source and are kept apart here.

Columns and labels:
[1] = tested on: acetyl p53K382; test: Acetylation of overexpressed p53 in HEK293T cells, Western blot; format: cell-based; conditions: HEK293T transfected with p300 and p53, 24 hr
Text: Figure 2.

[2] = tested on: histone acetylation (H2BK12/K15) in HEK293T cells; test: Site-specific histone acetylation in HEK293T cells by Western blot; format: cell-based; conditions: for Deacetylation of specific histone residues: Western blot; for IC50: Homo sapiens, HEK-293T
Experimental: To determine whether salicylate induces histone deacetylation directly in cells, we treated HEK293T cells with various concentrations of salicylate.
Figure 2. Salicylate inhibits specific lysine acetylation of histone and nonhistone proteins independently of AMPK activation. […] HEK293T cells were treated with the indicated concentrations of sodium salicylate for 24 hr. Site-specific histone acetylation was detected by Western blot with specific antisera. Bands were quantified with Image J software. Acetylation was normalized to that of untreated cells and plotted. Representative results are shown in Supplementary Figure 1. Experiments are repeated and error bars indicate SEM. […] HEK293T cells were transfected with increasing amounts of expression vectors for p300 or F1504A or PCAF, treated with sodium salicylate for 24 hr, and analyzed by Western blotting analysis with an antiserum specific for acetyl histone H2BK12/K15. Bands were quantified with Image J software. Acetylation was normalized to that of untreated control. Average levels of relative acetylation are plotted and error bars indicate SEM. Representative results are shown in Supplementary Figure 2—figure supplement 2. (E) IC50 values generated from all curves in panel (B) and (D) were plotted against the amount of plasmid transfected (p300 or PCAF). (F), (G) HEK293 T cells were transfected with expression vectors for p300 and NF-κB p65 (F) or p53 (G), treated with salicylate for 24 hr, and analyzed by Western blot with specific antibodies against acetyl NF-κBK310 (F) or acetyl p53K382 and acetyl H2BK12/15 (G). Compound C (10 μM), a specific AMPK inhibitor, was added to salicylate-treated cells for 24 hr before Western blot (G). KR, p65 K310R mutant DOI: http://dx.doi.org/10.7554/eLife.11156.005 Figure 2—figure supplement 1. Salicylate induces histone deacetylation in HEK293T cells HEK293T cells were treated with sodium salicylate as indicated for 24 hr, immediately lysed in Laemmli buffer, and then subjected to western blot analysis with the indicated antibodies. Histones H2A, H2B, H3 and H4 were used as input loading controls. Experiments are repeated five times and representative data are shown. DOI: http://dx.doi.org/10.7554/eLife.11156.006 [drawing 2] Figure 2—figure supplement 2. Salicylate-induced deacetylation of histone H2B can be rescued by overexpression of p300, but not PCAF, in a dose-dependent manner. (A) Overexpression of p300 but not PCAF specifically leads to hyperacetylation of histone H2B. […] H2B acetylation was measured by western blot and the specified antibodies. (B) Overexpression of p300 but not PCAF rescued salicylate-induced H2B deacetylation in a dose-dependent manner. […] H2B acetylation was measured by Western Blot and the specified antibodies. […]

[3] = target: T1, p300 (Homo sapiens, UniProt Q09472); test: In vitro HAT assay with recombinant p300, histones and 14C acetyl-CoA; format: biochemical; conditions: for IC50: in vitro HAT assay, recombinant p300 and histones, read-out: IC50, p300 acetyltransferase activity
T1 construct: in vitro acetylation assays with purified histones and a recombinant p300 catalytic domain; purchased Enzo Life Sciences
T1 sequence (Q09472 1287-1663 limits assumed): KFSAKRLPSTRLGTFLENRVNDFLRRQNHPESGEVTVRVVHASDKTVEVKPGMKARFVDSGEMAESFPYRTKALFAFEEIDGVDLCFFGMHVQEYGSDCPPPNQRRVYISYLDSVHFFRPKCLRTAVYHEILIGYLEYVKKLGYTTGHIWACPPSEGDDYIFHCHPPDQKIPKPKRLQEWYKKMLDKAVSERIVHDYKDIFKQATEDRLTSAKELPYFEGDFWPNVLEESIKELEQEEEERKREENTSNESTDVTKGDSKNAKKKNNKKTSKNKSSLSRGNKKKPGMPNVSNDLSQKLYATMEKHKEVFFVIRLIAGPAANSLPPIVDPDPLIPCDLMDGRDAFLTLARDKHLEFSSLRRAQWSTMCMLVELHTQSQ
Experimental: To determine whether salicylate inhibits p300 and other acetyltransferases, we used in vitro acetylation assays with purified histones and a recombinant p300 catalytic domain.
Figure 1. Salicylate inhibits CBP/p300 in vitro. (A) Recombinant p300, CBP, GCN5, or PCAF and histones were incubated with ^14C-labeled acetyl-CoA with or without sodium salicylate, separated by SDS-PAGE, analyzed by autoradiography, and quantified with Image J software. Acetylation levels are relative to those in untreated controls. (B) Thermal stability assay for sodium salicylate binding to the p300 HAT domain. Tm, melting temperature. (C) and (D) Lineweaver-Burk plots showing kinetic analysis of p300 acetyltransferase inhibition by sodium salicylate. Histone acetylation was measured with several concentrations of acetyl-CoA (C) or histone (D) in the presence or absence of sodium salicylate. DOI: http://dx.doi.org/10.7554/eLife.11156.003 Figure 1—figure supplement 1. […] (A) Dose-response data for inhibition of p300 by salicylate and salicyl-CoA. Acetylation of an H4(3–14) peptide was monitored using direct microfluidic mobility shift analysis as previously described ([Montgomery et al., 2014]; [Fanslau et al., 2010]). Error is given as the 95% confidence interval. […] Error is given as the 95% confidence interval. DOI: http://dx.doi.org/10.7554/eLife.11156.004 [drawing 1] TEXT PRINTED IN THE PICTURE: (A) Salicylate: p300 IC50 (mM): 6.12; Confidence Interval [CI95] (mM): 5.2–7.2 | (A) Salicyl-CoA: p300 IC50 (mM): […]; Confidence Interval [CI95] […] (mM): 0.78–1.4 | (B) Diflunisal-CoA: p300 IC50 (mM): 0.02; Confidence Interval [CI95] (mM): 0.02–0.03
Recombinant HAT ([…]), either p300, CBP, PCAF, or GCN5 (Enzo Life Sciences), and 10 µg of histones (Sigma) were incubated with sodium salicylate (Sigma) in reaction buffer (50 mM HEPES, pH 8.0, 10% glycerol, 1 mM) at 30°C for 30 min and then with 0.1 mCi of ^14C acetyl-CoA at 30°C for 60 min. Reactions were stopped by adding 6x sample buffer and analyzed by SDS-PAGE. The gels were dried, and signals were obtained by autoradiography and quantified with Image J software. To quantify acetylated histone levels, we generated a standard curve from signals of lanes loaded with […] of ^14C labeled histones.

With `O=C(O)c1ccccc1O` [salicylate, salicylic acid] the “Acetylation of p53 K382” value [1] was “decreased acetylation”, the “Deacetylation of specific histone residues” value ([2]; HEK293T cells, 24 hr) was “deacetylation of H2AK5/K9, H2BK12/K15, and H3K56 in a dose-dependent manner” and the IC50 ([2]; HEK293T cells, 24 hr, read-out: IC50 for inhibition of H2B acetylation) was 4800 µM. The “Mode of p300 inhibition against acetyl-CoA” value ([3]; Lineweaver-Burk, various concentrations of acetyl-CoA) was “direct competitive p300 inhibition against acetyl-CoA”, the “Mode of p300 inhibition against histones” value ([3]; Lineweaver-Burk, various concentrations of histone) was “noncompetitive inhibition against histones” and the IC50 [3] was 10200 µM.
For `O=C(O)c1cc(-c2ccc(F)cc2F)ccc1O` [diflunisal], the “Acetylation of p53 K382” value [1] was “suppressed acetylation”, the “Deacetylation of specific histone residues” value ([2]; HEK293T cells, 24 hr) was “induced deacetylation of specific histone residues, H2AK5, K9, H2BK12/K15, H3K56” and the IC50 ([2]; 24 h, read-out: IC50 for H2BK12/K15 inhibition in cells) was 160 µM. For the same compound, the IC50 [3] was 996 µM.
